Data reported in US5041557A, “Furan derivatives” (Laboratorios Vinas S.A., priority 1989, dated 1991).

Columns and labels:
[1] = tested on: ethanol induced ulcers (gastric mucous membrane); assay: Necrosing agent model: ethanol induced ulcers in the rat; format: in vivo; conditions: for mm lesion (lesion index, mm of ulcer) / % inhibition (ulcer inhibition percentage versus control): ethanol, LV-208 100 mg/kg, Rn equimolar dose; for mm lesion (lesion index, mm of ulcer): mean ± error of the mean, control 82.0 ± 10.1, LV-208: p < 0.001 versus control, p < 0.05 versus Rn (t test); for % inhibition (ulcer inhibition percentage versus control): versus control group; for protection against the ethanol induced aggression: rat, equimolar doses of LV-208 and Rn, result in words
Protocol: (§1) As stated above, the formula I compounds have shown a potent antiulcer activity. Thus the inhibition of histamine induced gastric secretion "in vivo" in rats, after intraperitoneal administration of these zinc-furan compounds at dose levels of 0.5; 1; 2 and 4 mg/kg reaches pH recovery levels, increasing with the dose, of 100%.
Particularly, the antiulcer activity of the compound LV-208 has been studied with evaluation of the secretion inhibiting and gastric mucous membrane protecting activity in the rat.
The activity of LV-208 was compared with the activity of Rn at equimolar doses using the necrosing agent model, ethanol in this case, described by Robert et al. (Gastroenterology, 77: 433, 1979), versus a control group administered excipient.
The following Table gives the lesion indexes (in mm of ulcer) of the three groups studied, as well as the ulcer inhibition percentages of the treated groups versus the control group (mean values±the error of the mean).

[2] = tested on: histamine induced gastric acid secretion; assay: "In vivo" histamine induced gastric acid secretion model in the rat; conditions: Wistar rats, intraperitoneal
Protocol: as §1
This activity was measured in Wistar rats having a body weight of 240±20 g. An endovenous perfusion of a histamine solution stimulated the gastric secretion producing a drop in the intragastric pH. LV-208 was thereafter administered intraperitoneally and the increase in the gastric pH that this produced was evaluated. An ED50 of 0.8 mg/kg and recovery of 100% at a dose of 4 mg/kg was obtained by a dose-response curve.

Row | Structure (SMILES) | mm lesion (lesion index, mm of ulcer) [1] [mm] | % inhibition (ulcer inhibition percentage versus control) [1] [%] | protection against the ethanol induced aggression [1] | recovery (gastric pH) ([2]; dose of 4 mg/kg) [%] | ED50 (increase in gastric pH, inhibition of histamine induced gastric acid secretion) ([2]; endovenous histamine perfusion, dose-response curve) [mg/kg]
1 | CNC(=C[N+](=O)[O-])NCCSCc1ccc(CN(C)C)o1.[Cl][Zn][Cl] [LV-208] | 4.8 ± 1.8 | 94.1 | practically complete protection | 100 | 0.8
2 | CNC(=C[N+](=O)[O-])NCCSCc1ccc(CN(C)C)o1 [Rn, N,N-dimethyl-5-(2-(1-methylamino-2-nitrovinylamino)ethylthiomethyl)furfurylamine, reference compound] | 40.6 ± 15.0 | 50.5 | discreet protection | – | –
